Experimental data from patent US20130090364A1, “ANALOGUES FOR THE TREATMENT OR PREVENTION OF FLAVIVIRUS INFECTIONS” (priority 2010, published 2013).
Like-named read-outs stand apart in the source and are kept apart here.

What was measured:
[1] = system: sub-genomic HCV replicon of genotype 1a; experiment: ELISA (NS5A protein level) in sub-genomic replicon 1a cell line W11.8; type: cell-based; settings: for IC50: W11.8, Table 4; for IC99 (nM) (1a): Table 4
Text: Activity Determination Using the ELISA and the Sub-Genomic Replicon 1a Cell Line
The cell line W11.8 containing the sub-genomic HCV replicon of genotype 1a is used to determine the potency of the drugs. The RNA replication in presence of different drug concentrations is indirectly measured in this cell line by the level of NS5A protein content upon drug treatment for four days. It is shown that the level of the NS5A protein correlates well with the level of HCV RNA in the replicon cell line. Cells are split twice a week in order to keep the confluence state below 85% of the culture flask surface area. The culture media used for cell passaging consists of DMEM-10% foetal bovine serum with 100 UI/mL penicillin, 100 μg/mL streptomycin, 2 mM glutamine, 1 mM sodium pyruvate, non-essential amino acids (1×) and 600 μg/mL of G418 final concentrations. Monolayer of the W11.8 cells is trypsinized and cells are counted. Cells are diluted at 50,000 cells/mL with complete DMEM without G418, then approximately 5,000 viable cells (100 μL) are plated per well in a white opaque 96-well microtiter plate. After an incubation period of 2-4 hours at 37° C. in a 5% CO2 incubator, compounds are added at various concentrations. Drugs are resuspended in DMSO at a stock concentration of 10 mM. Then, drugs are serially diluted at twice the final concentration in the same medium. One volume (100 μL) of each drug dilution is then added to each well that contains cells. A control compound is used as an internal standard for each plate assay. Sixteen wells are used as control (0% inhibition) without drug. […] Values from 100% inhibited wells were averaged and used as the background value. Cells are further incubated for four days at 37° C. in a 5% CO2 incubator. Following the incubation time of four days, the media is removed and wells are washed once with 150 μL of PBS at room temperature for five minutes. Cells are then fixed for five minutes using 150 μL per well of cold (−20° C.) fixative solution (50% methanol/50% acetone mix). Cells are then washed twice with 150 μL of PBS (phosphate buffered saline) per well, following the addition of 150 μL of blocking solution, cells are incubated for one hour at 37° C. to block non-specific sites. The blocking solution is removed and cells are washed twice with 150 μL of PBS per well and once with 150 μL of PBSTS solution (PBS/0.1% Triton X-100/0.02% SDS) per well. Then, 50 μL of mouse monoclonal anti-NS5A antibody (Santa Cruz, Cat. No. sc-52417) is added in each well, diluted 1/1,000 in the blocking solution and incubated at 4° C. overnight. Next day, media is removed and plates are washed five times with 150 μL of PBS per well with five-minute incubations at room temperature. Then 50 μL per well of peroxidase-conjugated donkey anti-mouse antibody (Jackson Immunoresearch, Cat. No. 715-036-150) diluted 1/10,000 in the blocking solution is added and incubated at room temperature for three hours on a shaker (500 rpm). Plates are washed four times with 150 μL of PBSTS solution per well and once with 150 μL of PBS. Then, substrate solution (100 μl, SuperSignal ELISA Pico Chemiluminescent Substrate, Fisher Cat. No. 37069) is added in each well and plates are incubated 60 minutes at room temperature prior to reading the luminescence (relative light units) on the Analyst HT plate reader. The percentage of inhibition at each drug concentration tested (in duplicate) is calculated.

[2] = system: HCV (1b) RNA replication (replicon I389Luc-ubi-neo/NS3-3′/5.1); experiment: Cell-based luciferase reporter HCV (1b) RNA replication assay, Huh-ET cells; settings: for IC50 / EC50: Hepatitis C virus; for IC50 / IC99 (nM) (1b): Table 4, sub-genomic replicon 1b cell line; for EC50: Table 2A, HCV genotype 1b replicon
Text: Cell-Based Luciferase Reporter HCV (Ib) RNA Replication Assay Cell Culture
Replicon cell lines Huh-5.2 are derived from the Huh-7 hepatocarcinoma cell line are maintained in culture as generally described in Krieger, N; Lohmann, V; Bartenschlager, R. Enhancement of hepatitis C virus RNA replication by cell culture-adaptive mutations. J. Virol. 2001, 75, 4614-4624. The Huh-5.2 cells contain the highly cell culture-adapted replicon I389Luc-ubi-neo/NS3-3′/5.1 construct that carries, in addition to the neomycin gene, an integrated copy to the firefly luciferase gene (Krieger, N; Lohmann, V; Bartenschlager, R. Enhancement of hepatitis C virus RNA replication by cell culture-adaptive mutations. J. Virol. 2001, 75, 4614-4624). This cell line allows measurement of HCV RNA replication and translation by measuring luciferase activity. It has been previously shown that the luciferase activity tightly follows the replicon RNA level in these cells (Krieger, N; Lohmann, V; Bartenschlager, R. Enhancement of hepatitis C virus RNA replication by cell culture-adaptive mutations. J. Virol. 2001, 75, 4614-4624). The Huh-ET cell line has the same features as those mentioned for Huh-5.2 cell line, except that ET cells are more robust and contain an adaptative mutation in the HCV NS4B gene instead of NSSA. Both cell lines are maintained in cultures at a sub-confluent level (<85%) as the level of replicon RNA is highest in actively proliferating cells. The culture media used for cell passaging consist of DMEM (Gibco BRL Laboratories, Mississauga, ON, Canada) supplemented with 10% foetal bovine serum with 1% penicilin/streptomycin, 1% glutamine, 1% sodium pyruvate, 1% non-essential amino acids, and 180 μg/ml of G418 final concentration. Cells are incubated at 37° C., in an atmosphere of 5% CO2 and passaged twice a week to maintain sub-confluence.
Approximately 3000 viable Huh-ET cells (100 μl) are plated per well in a white opaque 96-well microtiter plate. The cell culture media used for the assay is the same as described above except that it contains no G418 and no phenol red. After an incubation period of 3-4 hours at 37° C. in a 5% CO2 incubator, compounds (100 μl) are added at various concentrations. Cells are then further incubated for 4 days at 37° C. in a 5% CO2 incubator. Thereafter, the culture media is removed and cells are lysed by the addition of 95 μL of the luciferase buffer (luciferin substrate in buffered detergent). Cell lysates are incubated at room temperature and protected from direct light for at least 10 minutes. Plates are read for luciferase counts using a luminometer (Wallac MicroBeta Trilux, Perkin Elmer™, MA, USA).
Curves are fitted to data points using nonlinear regression analysis, and IC50s are interpolated from the resulting curve using GraphPad Prism software, version 2.0 (GraphPad Software Inc., San Diego, Calif., USA).

[3] = Hepatitis C virus, W11.8, read-out: EC50 (μM) (1a), Table 3

SMILES: COC(=O)N[C@H](C(=O)N1CCCC1c1nc2cc(C#Cc3cc4[nH]c([C@@H]5CCCN5C(=O)[C@@H](NC(=O)OC)C(C)C)nc4s3)ccc2[nH]1)C(C)C (stereo partly shown) [Compound 1b]
- EC50 [1, 3]: 0.828 µM

SMILES: COC(=O)NC(C(=O)N1C[C@@H](C)C[C@H]1c1nc2sc(-c3ccc(-c4ccc5[nH]c([C@@H]6C[C@H](C)CN6C(=O)[C@@H](NC(=O)OC)C(C)C)nc5c4)cc3)cc2[nH]1)C(C)C (stereo partly shown) [Compound 1c]
- IC50 ([1]; Hepatitis C virus): 1.65 nM
- IC99 (nM) (1a) [1]: 11.155 nM
- IC50 [2]: 0.011 nM
- IC99 (nM) (1b) [2]: 0.207 nM

SMILES: COC(=O)N[C@H](C(=O)N1C[C@@H](C)C[C@H]1c1nc2cc(C#Cc3cc4[nH]c([C@@H]5C[C@H](C)CN5C(=O)[C@@H](NC(=O)OC)C(C)C)nc4s3)ccc2[nH]1)C(C)C [Compound 2b]
- EC50 [1, 3]: 0.0403 µM
- EC50 ([1]; read-out: EC50 (μM) (1a), Table 3): 0.0377 µM

SMILES: COC(=O)N[C@H](C(=O)N1C[C@@H](C)C[C@H]1c1nc2sc(-c3ccc(-c4ccc5[nH]c([C@@H]6CC[C@H](C)N6C(=O)[C@@H](NC(=O)OC)C(C)C)nc5c4)cc3)cc2[nH]1)C(C)C [Compound 2c]
- IC50 ([1]; Hepatitis C virus): 0.619 nM
- IC99 (nM) (1a) [1]: 10.038 nM
- IC50 [2]: 0.005 nM
- IC99 (nM) (1b) [2]: 0.303 nM

SMILES: COC(=O)N[C@H](C(=O)N1CCC[C@H]1c1nc2sc(C#CC#Cc3cc4[nH]c([C@@H]5CCCN5C(=O)[C@@H](NC(=O)OC)C(C)C)nc4s3)cc2[nH]1)C(C)C [Compound 3b]
- EC50 [1, 3]: 0.282 µM

SMILES: COC(=O)N[C@H](C(=O)N1C[C@@H](C)C[C@H]1c1nc2sc(C#CC#Cc3cc4[nH]c([C@@H]5C[C@H](C)CN5C(=O)[C@@H](NC(=O)OC)C(C)C)nc4s3)cc2[nH]1)C(C)C [Compound 4b]
- EC50 [1, 3]: 0.184 µM

SMILES: COC(=O)N[C@H](C(=O)N1C[C@@H](C)C[C@H]1c1nc(-c2cccc(-c3ccc(-c4cc5nc([C@@H]6C[C@H](C)CN6C(=O)[C@@H](NC(=O)OC)C(C)C)[nH]c5s4)cc3)c2)c[nH]1)C(C)C [Compound 20]
- EC50 [2]: ≤ 5 nM

SMILES: COC(=O)N[C@H](C(=O)N1C[C@@H](C)C[C@H]1c1ncc(C#Cc2ccc(-c3ccc(-c4cc5[nH]c([C@@H]6C[C@H](C)CN6C(=O)[C@@H](NC(=O)OC)C(C)C)nc5s4)s3)cc2)[nH]1)C(C)C [Compound 21]
- EC50 [2]: ≤ 5 nM

SMILES: COC(=O)N[C@H](C(=O)N1C[C@@H](C)C[C@H]1c1ncc(-c2ccc(-c3ccc(-c4cc5[nH]c([C@@H]6C[C@H](C)CN6C(=O)[C@@H](NC(=O)OC)C(C)C)nc5s4)s3)cc2)[nH]1)C(C)C [Compound 22]
- EC50 [2]: ≤ 5 nM

SMILES: COC(=O)N[C@H](C(=O)N1C[C@@H](C)C[C@H]1c1nc(-c2csc3ccc(-c4ccc(-c5cc6nc([C@@H]7C[C@H](C)CN7C(=O)[C@@H](NC(=O)OC)C(C)C)[nH]c6s5)cc4)cc23)c[nH]1)C(C)C [Compound 23]
- EC50 [2]: 5 to 5000 nM

SMILES: COC(=O)N[C@H](C(=O)N1C[C@@H](C)C[C@H]1c1nc2cc(-c3ccc(-c4ccc(-c5cc6nc([C@@H]7C[C@H](C)CN7C(=O)[C@@H](NC(=O)OC)C(C)C)[nH]c6s5)cc4)cc3)sc2[nH]1)C(C)C [Compound 24]
- EC50 [2]: ≤ 5 nM

SMILES: COC(=O)N[C@H](C(=O)N1C[C@@H](C)C[C@H]1c1ncc(-c2ccc(-c3ccc(-c4cc5[nH]c([C@@H]6C[C@H](C)CN6C(=O)[C@@H](NC(=O)OC)C(C)C)nc5s4)cc3)s2)[nH]1)C(C)C [Compound 25]
- EC50 [2]: ≤ 5 nM

SMILES: COC(=O)N[C@H](C(=O)N1C[C@@H](C)C[C@H]1c1ncc(-c2ccc(-c3cc4sc(-c5cc6[nH]c([C@@H]7C[C@H](C)CN7C(=O)[C@@H](NC(=O)OC)C(C)C)nc6s5)cc4s3)cc2)[nH]1)C(C)C [Compound 26]
- EC50 [2]: ≤ 5 nM

SMILES: COC(=O)N[C@H](C(=O)N1C[C@@H](C)C[C@H]1c1nc2cc(-c3cc4sc(-c5cc6[nH]c([C@@H]7C[C@H](C)CN7C(=O)[C@@H](NC(=O)OC)C(C)C)nc6s5)cc4s3)ccc2[nH]1)C(C)C [Compound 27]
- EC50 [2]: ≤ 5 nM

SMILES: COC(=O)N[C@H](C(=O)N1C[C@@H](C)C[C@H]1c1nc(C)c(-c2ccc(-c3ccc(-c4cc5nc([C@@H]6C[C@H](C)CN6C(=O)[C@@H](NC(=O)OC)C(C)C)[nH]c5s4)cc3)cc2)[nH]1)C(C)C [Compound 28]
- EC50 [2]: ≤ 5 nM

SMILES: COC(=O)N[C@H](C(=O)N1C[C@@H](C)C[C@H]1c1ncc(-c2cc3sc(-c4ccc(-c5cc6[nH]c([C@@H]7C[C@H](C)CN7C(=O)[C@@H](NC(=O)OC)C(C)C)nc6s5)cc4)cc3s2)[nH]1)C(C)C [Compound 29]
- EC50 [2]: ≤ 5 nM

SMILES: COC(=O)N[C@H](C(=O)N1C[C@@H](C)C[C@H]1c1nc2sc(-c3ccc(-c4ccc(-c5cc6[nH]c([C@@H]7C[C@H](C)CN7C(=O)[C@@H](NC(=O)OC)C(C)C)nc6s5)s4)cc3)cc2[nH]1)C(C)C [Compound 30]
- EC50 [2]: ≤ 5 nM

SMILES: COC(=O)N[C@H](C(=O)N1C[C@@H](C)C[C@H]1c1ncc(C#Cc2ccc(-c3cc4[nH]c([C@@H]5C[C@H](C)CN5C(=O)[C@@H](NC(=O)OC)C(C)C)nc4s3)s2)[nH]1)C(C)C [Compound 31]
- EC50 [2]: ≤ 5 nM
